# Experiments:
# [1] = test system: G4-DNA structures (F-21-T, F-myc-T, F-21CTA-T, F-CEB25-WT-T); assay: FRET-melting assay (ligand-induced stabilization); assay type: binding, human; conditions: 1 µM ligand, 0.2 µM DNA, all G4-DNA structures, K+1 or K+10 buffer
# Experimental: For the G4-FID assay, the oligonucleotides were dissolved in K^+100 buffer (10 mM lithium cacodylate buffer pH 7.3, 100 mM KCl, 1% DMSO). Oligonucleotide concentrations were determined on the basis of their absorbance at 260 nm. For the fluorimetric titration, the oligonucleotides were dissolved in K^+100 buffer without DMSO. For the FRET-melting assay, the oligonucleotides were dissolved in K^+1 buffer (10 mM lithium cacodylate buffer pH 7.3, 1 mM KCl, 99 mM LiCl) except for F-21-T. F-21-T was dissolved in K^+10 buffer (10 mM lithium cacodylate buffer pH 7.3, 10 mM KCl, 90 mM LiCl).
# Prior to use, all oligonucleotides were pretreated by heating at 95 °C for 5 min, then rapidly cooled to 4 °C to favor the intramolecular folding by kinetic trapping. Duplex-DNA ds26 was prepared by heating the self-complementary strand at 90 °C for 5 min in K^+1 buffer followed by a slow cooling over 6 h.
# The stabilization of the compounds with a quadruplex-structure was monitored via FRET-melting assay performed in 96-well plates on a real-time PCR apparatus 7900HT Fast Real-Time PCR System as follows: 5 min at 25 °C and then an increase of 0.5 °C every minute until 95 °C. Each experimental condition was tested and replicated in a volume of 25 μL for each sample. The FRET-melting assay was performed with three dual fluorescently labeled DNA oligonucleotide sequences oligonucleotides. The donor fluorophore was 6-carboxyfluorescein, FAM, and the acceptor fluorophore was 6-carboxytetramethylrhodamine, TAMRA. The 96-well plates (Applied Biosystems) were prepared by aliquoting the annealed DNA (0.2 μM in K^+1 or K^+10 buffer) into each well, followed by 1 μL of the ligand ([…] (5 eq) in DMSO). For competition experiments, duplex competitors were added to 200 nM quadruplex sequences at final concentrations of 3.0 μM (15 eq) and 10.0 μM (50 eq), with a total reaction volume of 25 μL, with the labeled oligonucleotide (0.2 μM) and the ligand (1 μM). Measurements were made with excitation at 492 nm and detection at 516 nm. The change in the melting temperature at 1.0 μm compound concentration, ΔTm (1.0 μM), was calculated from at least two experiments by subtraction of the blank from the averaged melting temperature of each compound (1.0 μM). The final analysis of the data was carried out using Origin Pro 8.6 data analysis.
# [2] = test system: ds26 (DNA, duplex) CAATCGGATCGAATTCGATCCGATTG; assay: G4-FID, thiazole orange displacement; conditions: 100 mM KCl; 10 mM lithium cacodylate pH 7.3, 1% DMSO; thiazole orange displaced; 1 µM compound, 0.25 µM DNA
# duplex ds26 DNA = assay: TO-PRO-3 G4-FID assay; assay type: binding; conditions: ds26, K+100 buffer
# Experimental: For the G4-FID assay, the oligonucleotides were dissolved in K^+100 buffer (10 mM lithium cacodylate buffer pH 7.3, 100 mM KCl, 1% DMSO). Oligonucleotide concentrations were determined on the basis of their absorbance at 260 nm. For the fluorimetric titration, the oligonucleotides were dissolved in K^+100 buffer without DMSO. For the FRET-melting assay, the oligonucleotides were dissolved in K^+1 buffer (10 mM lithium cacodylate buffer pH 7.3, 1 mM KCl, 99 mM LiCl) except for F-21-T. F-21-T was dissolved in K^+10 buffer (10 mM lithium cacodylate buffer pH 7.3, 10 mM KCl, 90 mM LiCl). […]
# Each G4-FID assay was performed in a 96-well Non-Binding Surface black with black bottom polystyrene microplates (Corning). […] After 5 min of orbital shaking at 500 rpm, fluorescence is measured using the following experimental parameters: positioning delay of 0.5 s, 20 flashes per well, emission/excitation filters for TO at 485/520, TO-PRO-3 at 620/670, and PhenDV at 355/520 gain adjusted at 80% of the fluorescence from the most fluorescent well (i.e., a well from column A for TO and a well from column H).
# The percentage of TO displacement is calculated from the fluorescence intensity (F), using (1) % TO displacement=1−F/F0 where F0 is the fluorescence from the fluorescent probe bound to DNA without added ligand. […]
# 22AG human telomeric G4 = assay: Platination of 22AG followed by denaturing gel electrophoresis; assay type: biochemical; conditions: 0.2 µM 22AG, 1 µM complex, 25 to 95 °C gradient, K+10 buffer
# Description: Since all these complexes (except for Pt(PA)-tpy) are susceptible to induce platination reactions, they can be exacerbated by a high temperature and by an increased number of nucleophilic sites which are exposed during unfolding (increased N7 G free sites); we wonder if such a reaction could occur during FRET-melting experiments and to what extent. Therefore, we followed the extent of platination reactions of c-myc and 22AG (same sequences as those used for FRET-melting but without fluorophore labeling) as a function of the melting temperature using ^32P-labelled oligonucleotides and denaturing gel electrophoresis (Figure 2).
# The oligonucleotides were 5’-end-labelled using a polynucleotide kinase and (γ^32P)-ATP (Perkin Helmer). The reaction products were purified by electrophoresis on 20% denaturing gel. Sample platinations were prepared by folding a mixture of 5’-end-radiolabeled DNA and 10 µM or 100 µM of non-radiolabeled material in 100 mM KClO4 or 100 mM KCl solution except for the platination reaction in the denaturing temperature conditions. The folding was achieved by heating the samples at 90 °C for 5 min, followed by slow cooling to room temperature over the course of 2 h to induce the formation of the quadruplex structure. It was then incubated with platinum complexes, and platinated products were separated by electrophoresis on 15% denaturing gel. […]
# [3] = test system: F-21CTA-T (DNA, G4) AGGGCTAGGGCTAGGGCTAGGG; assay: FRET-melting; conditions: 1 mM KCl, 99 mM LiCl; 10 mM lithium cacodylate pH 7.3; 1 µM compound, 0.2 µM DNA
# [4] = test system: F-myc-T (DNA, G4) TGAGGGTGGGTAGGGTGGGTAA; assay: FRET-melting; conditions: 1 mM KCl, 99 mM LiCl; 10 mM lithium cacodylate pH 7.3; 1 µM compound, 0.2 µM DNA
# [5] = test system: 21CTA (DNA, G4) AGGGCTAGGGCTAGGGCTAGGG; assay: G4-FID, TO-PRO-3 displacement; conditions: 100 mM KCl; 10 mM lithium cacodylate pH 7.3, 1% DMSO; TO-PRO-3 displaced; 1 µM compound, 0.25 µM DNA
Compound,"∆Tm (ligand-induced stabilization, FRET-melting) [1] [°C]",% TO displacement [2] [%],% of TOPRO3 displacement at 1 µM of ligand (duplex ds26 DNA) [%],platination of 22AG during melting temperature experiments (22AG human telomeric G4),ΔTm [3] [°C],ΔTm [4] [°C],% TO-PRO-3 displacement [5]
"[Cl-].[Cl][Pt+].c1ccc(-c2cc(-c3ccc(OCCN4CCCC4)cc3)nc(-c3ccccn3)n2)nc1 [Pt-cpym, Chloro-(2,4-di(pyridin-2-yl)-6-(4-(2-(pyrrolidin-1-yl)ethoxy)phenyl)pyrimidine)-platinum(II) Chloride]",< 10,,,,,,
CN(C)CCCNCc1ccc(-c2cc(-c3ccccn3)nc(-c3ccccn3)c2)cc1.[Cl-].[Cl][Pt+] [Pt-ctpy],> 10,< 20,24,,,,
[Cl-].[Cl][Pt+].c1ccc(-c2cccc(-c3ccccn3)n2)nc1 [Pt-tpy],< 10,,,clearly platinate,,,
Cc1ccc(-c2cc(-c3ccccn3)nc(-c3ccccn3)c2)cc1.[Cl-].[Cl][Pt+] [Pt-ttpy],> 10,< 20,13,clearly platinate,> 10,> 10,
"CN(C)c1ccc(/C=C/c2cc(-c3ccccn3)nc(-c3ccccn3)n2)cc1.[Cl-].[Cl][Pt+] [Pt-vpym, Chloro-(E)-4-(2-(2,6-di(pyridin-2-yl)pyrimidin-4-yl)vinyl)-N,N-dimethylaniline-platinum(II) Chloride]",< 10,,,,,,~ 30%

# From publication PMC6385020 (Molecules, 2019)
